Data reported in patent US20090181980A1, “Synergistic Pharmaceutical Composition” (priority 2006, published 2009).

System: M. tuberculosis
Assay: MIC alone and in combination (synergy test)
Format: cell-based, Mycobacterium tuberculosis
Settings: for change of MIC when tested together: combination of Ethambutol and Isoniazid (negative control, FIG. 2)
Method: A sulfonylurea ALS inhibitor and a triazolopyrimidine ALS inhibitor were tested alone and in combination with Rifampicin. The positive controls used were Isoniazid and Streptomycin where one finds a synergistic action. The individual MICs of Isoniazid (INH) and Streptomycin (Strep) are 0.03 and 1.0 μg/ml respectively. When used in combination, these values drop to 0.0075 and 0.12 μg/ml respectively (cf. FIG. 1). This is 4 fold and 8 fold less.
The negative control used was a combination of Ethambutol (Etham) and Isoniazid (Inh) where there is no synergistic activity. […] In. Clinical Microbiology Procedures Handbook; Vol. 1-2 by Isenberg, Henry. D. Ed Washington D.C.; American Society for Microbiology/1992; Pages 5.18.1 to 5.18.28).
When used in combination, these MICs drop 0.0038 and 0.03 ug/ml respectively, which is 8-fold less for both the drugs.
When used in combination, these MICs drop to 0.0038 & 0.03 ug/ml which is 4 & 8-fold less for both the drugs.

[1] = combination of Isoniazid and Streptomycin versus individual MIC

| SMILES | change of MIC when tested together | fold less MIC in combination (combination of Rifampicin and SU versus individual MIC) [fold] | fold less MIC in combination (combination of Rifampicin and TP versus individual MIC) [fold] | fold less MIC in combination [1] [fold] |
| --- | --- | --- | --- | --- |
| CC[C@@H](CO)NCCN[C@@H](CC)CO [Ethambutol] | do not drop significantly | – | – | – |
| CO[C@H]1/C=C/O[C@@]2(C)Oc3c(C)c(O)c4c(O)c(c(/C=N/N5CCN(C)CC5)c(O)c4c3C2=O)NC(=O)/C(C)=C\C=C\[C@H](C)[C@H](O)[C@@H](C)[C@@H](O)[C@@H](C)[C@H](OC(C)=O)[C@@H]1C [Rifampicin] | – | 8 | 4 | – |
| NNC(=O)c1ccncc1 [Isoniazid] | do not drop significantly | – | – | 4 |
| [H]/N=C(/N)N[C@H]1[C@H](O)[C@@H](O)[C@H](O[C@@H]2O[C@@H](C)[C@](O)(C=O)[C@H]2O[C@@H]2O[C@@H](CO)[C@H](O)[C@@H](O)[C@@H]2NC)[C@@H](N/C(N)=N\[H])[C@@H]1O [Streptomycin] | – | – | – | 8 |
